Patent US10538498B2, “1,3,4-oxadiazole sulfonamide derivative compounds as histone deacetylase 6 inhibitor, and the pharmaceutical composition comprising the same” (Chong Kun Dang Pharmaceutical Corp., priority 2015, dated 2020)

Target: T1, human recombinant HDAC6 (Homo sapiens, UniProt Q9UBN7)
T1 construct: purchased Calbiochem 382180
T1 sequence (Q9UBN7 1-1215): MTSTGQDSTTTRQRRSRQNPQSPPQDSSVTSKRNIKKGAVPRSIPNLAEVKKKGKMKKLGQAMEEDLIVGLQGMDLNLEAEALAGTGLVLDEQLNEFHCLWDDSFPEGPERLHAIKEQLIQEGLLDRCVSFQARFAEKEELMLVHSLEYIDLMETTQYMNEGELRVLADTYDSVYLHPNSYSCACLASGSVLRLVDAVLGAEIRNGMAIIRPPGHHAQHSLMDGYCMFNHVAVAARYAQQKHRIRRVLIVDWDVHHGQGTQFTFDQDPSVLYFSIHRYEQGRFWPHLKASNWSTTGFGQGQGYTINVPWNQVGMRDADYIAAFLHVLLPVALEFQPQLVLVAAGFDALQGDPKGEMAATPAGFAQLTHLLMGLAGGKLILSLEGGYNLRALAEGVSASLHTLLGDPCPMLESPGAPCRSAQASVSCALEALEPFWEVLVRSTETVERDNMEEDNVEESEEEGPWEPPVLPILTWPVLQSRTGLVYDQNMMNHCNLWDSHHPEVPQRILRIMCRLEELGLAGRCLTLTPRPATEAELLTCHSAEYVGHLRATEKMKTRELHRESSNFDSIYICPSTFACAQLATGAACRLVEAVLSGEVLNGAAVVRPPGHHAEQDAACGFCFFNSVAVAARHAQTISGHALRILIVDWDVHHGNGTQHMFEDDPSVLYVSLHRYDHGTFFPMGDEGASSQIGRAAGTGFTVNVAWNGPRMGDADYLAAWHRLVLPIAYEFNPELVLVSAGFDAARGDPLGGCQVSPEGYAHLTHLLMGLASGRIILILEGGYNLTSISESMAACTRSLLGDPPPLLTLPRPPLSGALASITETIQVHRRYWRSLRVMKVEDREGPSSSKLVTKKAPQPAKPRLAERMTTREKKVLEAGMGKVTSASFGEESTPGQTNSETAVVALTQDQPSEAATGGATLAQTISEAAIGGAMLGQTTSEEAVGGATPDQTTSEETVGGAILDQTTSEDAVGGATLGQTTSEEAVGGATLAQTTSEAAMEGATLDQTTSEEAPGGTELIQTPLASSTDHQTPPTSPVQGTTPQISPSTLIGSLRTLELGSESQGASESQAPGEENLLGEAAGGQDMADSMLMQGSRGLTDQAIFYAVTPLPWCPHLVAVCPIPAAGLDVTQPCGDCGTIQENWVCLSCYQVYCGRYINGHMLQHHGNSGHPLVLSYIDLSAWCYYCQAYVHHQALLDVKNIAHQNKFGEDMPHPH
Assay: HDAC6 enzyme activity inhibition assay (HDAC Fluorimetric Drug Discovery Kit)
Assay type: biochemical
Details: for HDAC6 selectivity (fold): HDAC1 vs HDAC6; for IC50: same protocol as the HDAC1 enzyme activity test
Summary of the method: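 Human recombinant enzyme, 0.3 μg, incubated with 10 μM Fluor de Lys-SIRT1 substrate and 5-fold compound dilutions at 30° C for 60 min. Developer II added for 30 min, then fluorescence read (Ex 360/Em 460). IC50 values derived from the fluorescence data.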

Row | SMILES | HDAC6 selectivity (fold) | IC50
1 | O=S(=O)(CCN1CC[C@H](F)C1)N(Cc1ccc(-c2nnc(C(F)F)o2)cc1)c1ccccc1 [Compound 11795, (S)—N-(4-(5-(difluoromethyl)-1,3,4-oxadiazol-2-yl)benzyl)-2-(3-fluoropyrrolidin-1-yl)-N-phenylethane-1-sulfonamide] | 1466 fold | 68.2 nM
2 | O=S(=O)(CCN(Cc1ccccc1)Cc1ccccc1)N(Cc1ccc(-c2nnc(C(F)F)o2)cc1)c1ccccc1 [Compound 11796, 2-(dibenzylamino)-N-(4-(5-(difluoromethyl)-1,3,4-oxadiazol-2-yl)benzyl)-N-phenylethane-1-sulfonamide] | 56 fold | 1780 nM
3 | CN(C)CCS(=O)(=O)N(Cc1ccc(-c2nnc(C(F)F)o2)cc1)c1ccccc1 [Compound 11797, N-(4-(5-(difluoromethyl)-1,3,4-oxadiazol-2-yl)benzyl)-2-(dimethylamino)-N-phenylethane-1-sulfonamide] | 821 fold | 122 nM
4 | CCN(CC)CCS(=O)(=O)N(Cc1ccc(-c2nnc(C(F)F)o2)cc1)c1ccccc1 [Compound 11798, 2-(diethylamino)-N-(4-(5-(difluoromethyl)-1,3,4-oxadiazol-2-yl)benzyl)-N-phenylethane-1-sulfonamide] | 538 fold | 186 nM
5 | O=S(=O)(CCN1CC(O)C1)N(Cc1ccc(-c2nnc(C(F)F)o2)cc1)c1ccccc1 [Compound 11799, N-(4-(5-(difluoromethyl)-1,3,4-oxadiazol-2-yl)benzyl)-2-(3-hydroxyazetidine-1-yl)-N-phenylethane-1-sulfonamide] | 516 fold | 194 nM
6 | O=S(=O)(CCN1CC[C@H](O)C1)N(Cc1ccc(-c2nnc(C(F)F)o2)cc1)c1ccccc1 [Compound 11800, (S)—N-(4-(5-(difluoromethyl)-1,3,4-oxadiazol-2-yl)benzyl)-2-(3-hydroxypyrrolidin-1-yl)-N-phenylethane-1-sulfonamide] | 2252 fold | 44.4 nM
7 | O=S(=O)(CCN1CC[C@@H](O)C1)N(Cc1ccc(-c2nnc(C(F)F)o2)cc1)c1ccccc1 [Compound 11801, (R)—N-(4-(5-(difluoromethyl)-1,3,4-oxadiazol-2-yl)benzyl)-2-(3-hydroxypyrrolidin-1-yl)-N-phenylethane-1-sulfonamide] | 2941 fold | 34 nM
8 | O=S(=O)(CCN1CCC[C@H]1CO)N(Cc1ccc(-c2nnc(C(F)F)o2)cc1)c1ccccc1 [Compound 11802, (S)—N-(4-(5-(difluoromethyl)-1,3,4-oxadiazol-2-yl)benzyl)-2-(2-(hydroxymethyl)pyrrolidin-1-yl)-N-phenylethane-1-sulfonamide] | 2849 fold | 35.1 nM
9 | O=S(=O)(CCN1CCC[C@@H]1CO)N(Cc1ccc(-c2nnc(C(F)F)o2)cc1)c1ccccc1 [Compound 11803, (R)—N-(4-(5-(difluoromethyl)-1,3,4-oxadiazol-2-yl)benzyl)-2-(2-(hydroxymethyl)pyrrolidin-1-yl)-N-phenylethane-1-sulfonamide] | 4587 fold | 21.8 nM
10 | O=S(=O)(CCN1CC[C@H](CO)C1)N(Cc1ccc(-c2nnc(C(F)F)o2)cc1)c1ccccc1 [Compound 11804, (S)—N-(4-(5-(difluoromethyl)-1,3,4-oxadiazol-2-yl)benzyl)-2-(3-(hydroxymethyl)pyrrolidin-1-yl)-N-phenylethane-1-sulfonamide] | 3115 fold | 32.1 nM
11 | O=S(=O)(CCN1CC[C@@H](CO)C1)N(Cc1ccc(-c2nnc(C(F)F)o2)cc1)c1ccccc1 [Compound 11805, (R)—N-(4-(5-(difluoromethyl)-1,3,4-oxadiazol-2-yl)benzyl)-2-(3-(hydroxymethyl)pyrrolidin-1-yl)-N-phenylethane-1-sulfonamide] | 3021 fold | 33.1 nM
